Patent US20260364024A1, “A SCALABLE AND CONTINUOUS METHOD TO PREPARE SOLID DRUG NANOPARTICLES FOR OCULAR DISEASE THERAPY” (The Curators of the University of Missouri, priority 2023, published 2026)
Counter-ions that a name gives are not always drawn.

Legend:
[1] = In vitro drug release by dialysis in PBS; type: physicochemical; settings: from BT/BH solution; within 4 h, PBS pH 7.4, 37 °C, sink condition
Experimental: The tube was then immersed in 5 mL of PBS, and the set was incubated at 37 °C with shaking (100 rpm). At predetermined intervals, 100 μL of the release medium (PBS) was withdrawn and replaced with equal volume of fresh medium. […] These experiments were carried out in triplicate.
Because the BM/BX SDNs are composed of hydrophobic drugs, the release was expected to slow down in comparison to their hydrophilic counterparts BT and BH.

[2] = Ex vivo cornea permeation (Franz diffusion cell); type: in vitro ADME; settings: from BT/BH solution, within 4 h, 37 °C, rabbit cornea
Experimental: After using dextran to confirm the intactness of cornea extracted from fresh rabbit eyes, that cornea was mounted between the donor chamber and receptor chamber of a Franz diffusion cell system. […] The set was incubated at 37 °C. At predetermined intervals up to 12 h, an aliquot of 100 μL was withdrawn from the receptor chamber and analyzed by LC-MS. An equal volume of fresh PBS was supplemented to the receptor chamber following each sampling. FITC-labeled Dextran was tested to confirm the intactness of the cornea, and the permeation of the FITC-labeled Dextran was quantified by measuring the fluorescence intensity of FITC (Emission: 525 nm, Excitation: 490 nm) using a microplate reader.

[3] = eye drops, salt form; background statement; cited from earlier work

Structure (SMILES) | BH released [1] [%] | hydrophilic counterpart penetrated across the cornea [2] | bioavailability [3] | BT released [1]
CC(C)NCC(O)COc1ccc(CCOCC2CC2)cc1 (stereo not drawn) [BH, betaxolol hydrochloride] | > 70 | less than 10% | less than 5% | –
Brc1c(NC2=NCCN2)ccc2nccnc12.O=C(O)C(O)C(O)C(=O)O [BT, brimonidine tartrate] | – | less than 10% | less than 5% | more than 60%
